PubChem BioAssay AID1963829 (Molecular Pharmacology Branch, DTP, NCI, 2024)

Test system: 935938-334-R-J1-PDC complex spheroid viability
Assay: Anticancer human tumor 935938-334-R-J1-PDC patient-derived small intestine adenocarcinoma cell line growth inhibition [POLQ]
Conditions: for IC50: curve of first compound; for viability, T/C: stronger effect = lower value
Summary of the method: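 Three-cell-type spheroids modelling solid tumor plus stroma served as the readout system; POL inhibitors were tested individually and in combination, concentration ranges set by clinical Cmax where known.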

[1] = second compound 0.0316 µM, first compound 0.0316 µM
[2] = second compound 0.0316 µM, first compound 0.1 µM
[3] = second compound 0.0316 µM, first compound 0.316 µM
[4] = second compound 0.0316 µM, first compound 1 µM
[5] = second compound 0.0316 µM, first compound 3.16 µM
[6] = second compound 0.0316 µM, first compound 10 µM
[7] = second compound 0.1 µM, first compound 0.0316 µM
[8] = second compound 0.1 µM, first compound 0.1 µM
[9] = second compound 0.1 µM, first compound 0.316 µM
[10] = second compound 0.1 µM, first compound 1 µM
[11] = second compound 0.1 µM, first compound 3.16 µM
[12] = second compound 0.1 µM, first compound 10 µM
[13] = second compound 0.316 µM, first compound 0.0316 µM
[14] = second compound 0.316 µM, first compound 0.1 µM
[15] = second compound 0.316 µM, first compound 0.316 µM
[16] = second compound 0.316 µM, first compound 1 µM
[17] = second compound 0.316 µM, first compound 3.16 µM
[18] = second compound 0.316 µM, first compound 10 µM
[19] = second compound 1 µM, first compound 0.0316 µM
[20] = second compound 1 µM, first compound 0.1 µM
[21] = second compound 1 µM, first compound 0.316 µM
[22] = second compound 1 µM, first compound 1 µM
[23] = second compound 1 µM, first compound 3.16 µM
[24] = second compound 1 µM, first compound 10 µM
[25] = second compound 3.16 µM, first compound 0.0316 µM
[26] = second compound 3.16 µM, first compound 0.1 µM
[27] = second compound 3.16 µM, first compound 0.316 µM
[28] = second compound 3.16 µM, first compound 1 µM
[29] = second compound 3.16 µM, first compound 3.16 µM
[30] = second compound 3.16 µM, first compound 10 µM
[31] = second compound 10 µM, first compound 0.0316 µM
[32] = second compound 10 µM, first compound 0.1 µM
[33] = second compound 10 µM, first compound 0.316 µM
[34] = second compound 10 µM, first compound 1 µM
[35] = second compound 10 µM, first compound 3.16 µM
[36] = second compound 10 µM, first compound 10 µM
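Further: spheroids exposed to drugs for seven days before viability read.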
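Wherever viability, T/C is given: 100% = DMSO vehicle control wells.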

CCCS(=O)(=O)Nc1ccc(F)c(C(=O)c2c[nH]c3ncc(-c4ccc(Cl)cc4)cc23)c1F + Cc1cccc(N(C)C(=O)C2C(O)CCN2c2nc(C)cc(C(F)(F)F)c2C#N)c1
IC50 (second compound 0.0316 µM): > 10000 nM
IC50 (second compound 0.1 µM): 9270 nM
IC50 (second compound 0.316 µM): 9180 nM
IC50 (second compound 1 µM): 9750 nM
IC50 (second compound 3.16 µM): > 10000 nM
IC50 (second compound 10 µM): 9010 nM
viability, T/C [1]: 85.3%
viability, T/C [2]: 97.4%
viability, T/C [3]: 117%
viability, T/C [4]: 147%
viability, T/C [5]: 146%
viability, T/C [6]: 51%
viability, T/C [7]: 114%
viability, T/C [8]: 119%
viability, T/C [9]: 166%
viability, T/C [10]: 121%
viability, T/C [11]: 112%
viability, T/C [12]: 45%
viability, T/C [13]: 97.4%
viability, T/C [14]: 115%
viability, T/C [15]: 119%
viability, T/C [16]: 120%
viability, T/C [17]: 120%
viability, T/C [18]: 44.8%
viability, T/C [19]: 95.7%
viability, T/C [20]: 125%
viability, T/C [21]: 121%
viability, T/C [22]: 148%
viability, T/C [23]: 131%
viability, T/C [24]: 48.2%
viability, T/C [25]: 88.9%
viability, T/C [26]: 108%
viability, T/C [27]: 123%
viability, T/C [28]: 151%
viability, T/C [29]: 113%
viability, T/C [30]: 51.4%
viability, T/C [31]: 106%
viability, T/C [32]: 109%
viability, T/C [33]: 127%
viability, T/C [34]: 146%
viability, T/C [35]: 149%
viability, T/C [36]: 42.1%

Nc1ccn(C2OC(CO)C(O)C2(F)F)c(=O)n1 (stereo not drawn) + Nc1ccc(C#CCN(C(=O)Cc2ncc(C(F)(F)F)cc2C(F)(F)F)c2ccc(F)cc2)nn1
IC50 (second compound 0.0316 µM): < 31.6 nM
IC50 (second compound 0.1 µM): < 31.6 nM
IC50 (second compound 0.316 µM): < 31.6 nM
IC50 (second compound 1 µM): < 31.6 nM
IC50 (second compound 3.16 µM): < 31.6 nM
IC50 (second compound 10 µM): < 31.6 nM
viability, T/C [1]: 35.4%
viability, T/C [2]: 27.6%
viability, T/C [3]: 17.3%
viability, T/C [4]: 17.3%
viability, T/C [5]: 18.2%
viability, T/C [6]: 16.8%
viability, T/C [7]: 33.2%
viability, T/C [8]: 24.4%
viability, T/C [9]: 16.5%
viability, T/C [10]: 17.5%
viability, T/C [11]: 19.1%
viability, T/C [12]: 13.9%
viability, T/C [13]: 31.1%
viability, T/C [14]: 24.8%
viability, T/C [15]: 23.2%
viability, T/C [16]: 19.6%
viability, T/C [17]: 17.1%
viability, T/C [18]: 14.4%
viability, T/C [19]: 33.2%
viability, T/C [20]: 23.4%
viability, T/C [21]: 18.2%
viability, T/C [22]: 19.1%
viability, T/C [23]: 16.6%
viability, T/C [24]: 15.3%
viability, T/C [25]: 30.2%
viability, T/C [26]: 25.6%
viability, T/C [27]: 20.2%
viability, T/C [28]: 21.2%
viability, T/C [29]: 17.5%
viability, T/C [30]: 17.1%
viability, T/C [31]: 42.9%
viability, T/C [32]: 31.6%
viability, T/C [33]: 30.1%
viability, T/C [34]: 20.6%
viability, T/C [35]: 19.8%
viability, T/C [36]: 19.2%

CC1COCCN1c1cc(C2(S(C)(=N)=O)CC2)nc(-c2ccnc3[nH]ccc23)n1 (stereo not drawn) + Cc1cccc(N(C)C(=O)C2C(O)CCN2c2nc(C)cc(C(F)(F)F)c2C#N)c1
IC50 (second compound 0.0316 µM): 2890 nM
IC50 (second compound 0.1 µM): 3050 nM
IC50 (second compound 0.316 µM): 2440 nM
IC50 (second compound 1 µM): 2520 nM
IC50 (second compound 3.16 µM): 1570 nM
IC50 (second compound 10 µM): 2000 nM
viability, T/C [1]: 116%
viability, T/C [2]: 91.8%
viability, T/C [3]: 91.4%
viability, T/C [4]: 96.2%
viability, T/C [5]: 46.1%
viability, T/C [6]: 21.4%
viability, T/C [7]: 113%
viability, T/C [8]: 109%
viability, T/C [9]: 86.1%
viability, T/C [10]: 84.5%
viability, T/C [11]: 44.6%
viability, T/C [12]: 20.2%
viability, T/C [13]: 82.6%
viability, T/C [14]: 110%
viability, T/C [15]: 69.1%
viability, T/C [16]: 88.1%
viability, T/C [17]: 38.9%
viability, T/C [18]: 19.9%
viability, T/C [19]: 110%
viability, T/C [20]: 89%
viability, T/C [21]: 97.6%
viability, T/C [22]: 70.1%
viability, T/C [23]: 44.4%
viability, T/C [24]: 21.8%
viability, T/C [25]: 97.7%
viability, T/C [26]: 112%
viability, T/C [27]: 72.3%
viability, T/C [28]: 62.9%
viability, T/C [29]: 36.4%
viability, T/C [30]: 23.5%
viability, T/C [31]: 116%
viability, T/C [32]: 104%
viability, T/C [33]: 117%
viability, T/C [34]: 68%
viability, T/C [35]: 41.2%
viability, T/C [36]: 20.1%

Nc1ccn(C2OC(CO)C(O)C2(F)F)c(=O)n1 (stereo not drawn) + Cc1cccc(N(C)C(=O)C2C(O)CCN2c2nc(C)cc(C(F)(F)F)c2C#N)c1
IC50 (second compound 0.0316 µM): < 31.6 nM
IC50 (second compound 0.1 µM): < 31.6 nM
IC50 (second compound 0.316 µM): < 31.6 nM
IC50 (second compound 1 µM): < 31.6 nM
IC50 (second compound 3.16 µM): < 31.6 nM
IC50 (second compound 10 µM): < 31.6 nM
viability, T/C [1]: 40.4%
viability, T/C [2]: 27.8%
viability, T/C [3]: 23.1%
viability, T/C [4]: 21%
viability, T/C [5]: 18.2%
viability, T/C [6]: 16.3%
viability, T/C [7]: 32.9%
viability, T/C [8]: 29.7%
viability, T/C [9]: 21.4%
viability, T/C [10]: 21.1%
viability, T/C [11]: 20.2%
viability, T/C [12]: 21.2%
viability, T/C [13]: 40.2%
viability, T/C [14]: 30.9%
viability, T/C [15]: 23.2%
viability, T/C [16]: 23.4%
viability, T/C [17]: 18.8%
viability, T/C [18]: 18.1%
viability, T/C [19]: 37.4%
viability, T/C [20]: 27.7%
viability, T/C [21]: 26.6%
viability, T/C [22]: 23.2%
viability, T/C [23]: 22.8%
viability, T/C [24]: 19.9%
viability, T/C [25]: 37.3%
viability, T/C [26]: 33.8%
viability, T/C [27]: 24.8%
viability, T/C [28]: 19.2%
viability, T/C [29]: 23.2%
viability, T/C [30]: 20.3%
viability, T/C [31]: 39.2%
viability, T/C [32]: 35.4%
viability, T/C [33]: 29.2%
viability, T/C [34]: 23.3%
viability, T/C [35]: 26.2%
viability, T/C [36]: 19.2%
